Results reported in patent US20220395477A1, “COMPOSITIONS AND METHODS FOR PREVENTING AND TREATING RESPIRATORY SYNCYTIAL VIRUS INFECTION” (priority 2019, published 2022).

Tested on: RSV Line 19 (rA2-KL19F)
Assay: RFP (mKate2)-expressing RSV infection of A549 cells pretreated with SCFAs 24 hours before infection (RFP/DAPI)
Type: cell-based, Human Respiratory Syncytial Virus
Conditions: single SCFA 100 to 300 μM, 3 MOI, imaged after 48 hours
Protocol: Images taken after 48 Hrs.
Cells were infected at 3 MOI of RSV Line 19 (rA2-KL19F) expressing a red fluorescent marker, mKate2, as well as the F protein from the mucogenic clinical strain, and media was replaced with the appropriate SCFAs that was previously used in cultured. After 48 hours, the cells were stained with NucBlue (life technologies) and imaged using a Keyence fluorescence microscope (FIGS. 4A-4B).

Compound | expression of RFP-MKate (RFP/DAPI)
CCC(=O)O [propionate] | reduces the expression of RFP-MKate
CC(=O)O [acetate] | reduces the expression of RFP-MKate
